Measurements: ChEMBL document CHEMBL1201862, “PubChem BioAssay data set” (2004)
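Following 48 hours of exposure in 96-well plates, responses at five concentrations were used to interpolate endpoints linearly. GI50 is the concentration that inhibits growth by half.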 Calls of active or inactive are those of the source. No stated cut-off is given here; in the data, active = GI50 up to about 1.1 µM and inactive = higher.

Columns and labels:
Assay in all cases: inhibition of tumour cell growth, NCI panel, 48 h
[1] = system: DLD-1
[2] = system: LXFL 529
[3] = system: DMS-273
[4] = system: RXF 631
[5] = system: DMS-114
[6] = system: M19-MEL
[7] = system: HOP-18
[8] = system: SNB-78
[9] = system: KM-20L2

| Structure (SMILES) | GI50 [1] | GI50 [2] | GI50 [3] | GI50 [4] | GI50 [5] | GI50 [6] | GI50 [7] | GI50 [8] | GI50 [9] |
| --- | --- | --- | --- | --- | --- | --- | --- | --- | --- |
| CC1(c2ccccc2)CC(c2cccc([N+](=O)[O-])c2)=NO1 (stereo unspecified) | > 100 µM (inactive) | 94.2 µM (inactive) | > 100 µM (inactive) | > 100 µM (inactive) | 44.2 µM (inactive) | > 100 µM (inactive) | > 100 µM (inactive) | > 100 µM (inactive) |  |
| CCN(CC)c1c(C(=O)/C=C/c2ccc(F)cc2)c(-c2ccccc2)nn(C)c1=O | 3.63 µM (inactive) | 4.6 µM (inactive) | 6.62 µM (inactive) |  | 5.32 µM (inactive) | 6.64 µM (inactive) | 21.2 µM (inactive) | 14.4 µM (inactive) | 11.8 µM (inactive) |
| NC1=NN(c2ccccc2)C(=O)C1C(=O)C(=O)Nc1ccc(Cl)c(Cl)c1 (stereo unspecified) | > 100 µM (inactive) |  | > 100 µM (inactive) | > 100 µM (inactive) | > 100 µM (inactive) | > 100 µM (inactive) | > 100 µM (inactive) | > 100 µM (inactive) | > 100 µM (inactive) |
| COc1ccc2ccnc(Cc3ccc(OCc4ccccc4)c(OC)c3)c2c1 | 25.5 µM (inactive) | 25.9 µM (inactive) |  |  |  |  | 16.6 µM (inactive) | 26.2 µM (inactive) | 34.5 µM (inactive) |
| COC(OC)c1cccnc1C | > 100 µM (inactive) | > 100 µM (inactive) | > 100 µM (inactive) | > 100 µM (inactive) | > 100 µM (inactive) | > 100 µM (inactive) | > 100 µM (inactive) | > 100 µM (inactive) | > 100 µM (inactive) |
| COc1cc(C(CC(OC)OC)=C(C#N)C#N)cc(OC)c1OC | 3.58 µM (inactive) | 11.4 µM (inactive) | 10.4 µM (inactive) |  | 20.7 µM (inactive) | 12.2 µM (inactive) |  | 60.4 µM (inactive) | 11.4 µM (inactive) |
| CCN(CC)C(=O)Cc1c(C(=O)N(CC)CC)c(=O)nc2sccn12 | > 100 µM (inactive) | > 100 µM (inactive) | > 100 µM (inactive) |  | > 100 µM (inactive) | > 100 µM (inactive) | > 100 µM (inactive) |  | > 100 µM (inactive) |
| CON(C)C(=O)CCCO | > 100 µM (inactive) | > 100 µM (inactive) |  | > 100 µM (inactive) | > 100 µM (inactive) | > 100 µM (inactive) | > 100 µM (inactive) |  | > 100 µM (inactive) |
| c1ccc2c(NCCCCCCNc3cccc4ccccc34)cccc2c1 | > 100 µM (inactive) | > 100 µM (inactive) | > 100 µM (inactive) | > 100 µM (inactive) | 49.1 µM (inactive) | > 100 µM (inactive) | > 100 µM (inactive) | > 100 µM (inactive) | > 100 µM (inactive) |
| O=[N+]([O-])c1cccc(C(O)/C(=N/O)c2nc3ccc(Cl)cc3nc2O)c1 (stereo unspecified) | > 100 µM (inactive) | > 100 µM (inactive) |  | > 100 µM (inactive) | > 100 µM (inactive) | > 100 µM (inactive) | > 100 µM (inactive) |  | > 100 µM (inactive) |
| Cn1c2c(c3ccccc31)CCN(CCN1CCN(c3cccc(Cl)c3)CC1)C2=O | 20.7 µM (inactive) | 49 µM (inactive) | 49.5 µM (inactive) |  | 37.4 µM (inactive) | > 100 µM (inactive) | > 100 µM (inactive) |  | 32.4 µM (inactive) |
| O=C(Nc1ccccc1-c1nc2ccccc2[nH]c1=O)c1ccccc1 | 29.2 µM (inactive) | 24.6 µM (inactive) | 22.9 µM (inactive) |  | 19.5 µM (inactive) | 32.5 µM (inactive) |  | 24 µM (inactive) | 39.6 µM (inactive) |
| C=CCC1C(=O)CC2(C)C(CC=C)C(=O)CC12C (stereo unspecified) | > 100 µM (inactive) | > 100 µM (inactive) | > 100 µM (inactive) | > 100 µM (inactive) |  | > 100 µM (inactive) | > 100 µM (inactive) |  | > 100 µM (inactive) |
| CCOC(=O)C1(CC)CCCCC(=O)N1 (stereo unspecified) | > 100 µM (inactive) | > 100 µM (inactive) | > 100 µM (inactive) |  | > 100 µM (inactive) | > 100 µM (inactive) | > 100 µM (inactive) | > 100 µM (inactive) | > 100 µM (inactive) |
| COC(=O)/C(=N\O)C(C(=O)C=C(C)C)C(=O)C(=O)Nc1ccccc1C (stereo unspecified) | > 100 µM (inactive) | > 100 µM (inactive) | > 100 µM (inactive) |  | > 100 µM (inactive) | > 100 µM (inactive) | > 100 µM (inactive) | > 100 µM (inactive) | > 100 µM (inactive) |
| CS(=O)(=O)OCCN1CCN(C(=O)c2ccc(Cl)c3c(Nc4ccc(S(=O)(=O)N=C(N)N)cc4)c4ccccc4nc23)CC1 | > 100 µM (inactive) |  | > 100 µM (inactive) | > 100 µM (inactive) | > 100 µM (inactive) | > 100 µM (inactive) |  |  | > 100 µM (inactive) |
| CCN(CC)Cc1cc(Nc2ccnc3ccc4nn(C)nc4c23)ccc1O |  | 12.6 µM (inactive) |  | 7.78 µM (inactive) |  | 11.9 µM (inactive) |  | 15.9 µM (inactive) | 6.89 µM (inactive) |
| C=Cc1ccc(C)[n+](C[Si](C)(C)O[Si](C)(C)C)c1 | > 100 µM (inactive) | > 100 µM (inactive) | > 100 µM (inactive) | > 100 µM (inactive) | > 100 µM (inactive) |  |  | > 100 µM (inactive) | > 100 µM (inactive) |
| CSc1ccc2c(cc1=O)[C@@H](NC(=O)c1ccc(Cl)cc1)CCc1cc(O)c(O)c(O)c1-2 | 26.1 µM (inactive) | 33.3 µM (inactive) | 50.6 µM (inactive) |  | 32.4 µM (inactive) | 31.1 µM (inactive) | > 100 µM (inactive) | > 100 µM (inactive) | > 100 µM (inactive) |
| Cc1c(O)c(=O)ccn1C1OC(CO)C(O)C1O (stereo unspecified) | 91.8 µM (inactive) | > 100 µM (inactive) | 82 µM (inactive) |  |  | > 100 µM (inactive) |  | > 100 µM (inactive) | 45 µM (inactive) |
| Cc1cc2c(ccc3c(C)cc(=O)oc32)o1 | > 100 µM (inactive) | > 100 µM (inactive) | > 100 µM (inactive) | > 100 µM (inactive) | > 100 µM (inactive) | > 100 µM (inactive) | > 55.6 µM (inactive) | > 58.5 µM (inactive) | > 100 µM (inactive) |
| C/C1=C\[C@H](C)C[C@H](C)OC(=O)C[C@H](c2ccc(O)cc2)NC(=O)[C@@H](Cc2c(Br)[nH]c3ccccc23)N(C)C(=O)[C@H](C)NC(=O)[C@@H](C)C1 [JASPAMIDE] | 0.843 µM (active) | 0.293 µM (active) | 0.308 µM (active) | 0.298 µM (active) | 0.516 µM (active) | 0.789 µM (active) |  | 0.374 µM (active) | 0.34 µM (active) |
